Experimental data as given in paper PMC11156913, “New sulfonamide-based glycosides incorporated 1,2,3-triazole as cytotoxic agents through VEGFR-2 and carbonic anhydrase inhibitory activity” (Scientific Reports, 2024).
Values joined by “and” are separate entries in the source; they are usually repeats but may differ in a detail not shown here. Equal values may be shown once. Values belong to the molecule of their own block, whether it stands above or below them.

Tests used:
[1] = tested on: lung A-549 cancer cell line; experiment: In vitro cytotoxic activity (MTT assay), A-549; details: for inhibition at 100 µM / IC50: Homo sapiens; for inhibition at 100 µM: A549, 48 h, read-out: % inhibition ± SD A-549; for IC50: A549, read-out: IC50 (mean ± SD) A-549
Protocol: Exponentially, cells were placed in 10^4 cells/ well for 24 h, and then add fresh medium which containing different concentration of the tested sample. Serial two-fold dilution of the tested sample were added using a multichannel pipette. […] Rinse the wells using water until no stain. After that, add 30% glacial acetic acid to all wells with shaking plates on Microplate reader (TECAN, Inc.) to measure the absorbance, using a test wavelength of 490 nm. Besides, compare the treated samples with the control cell.

[2] = tested on: liver HepG-2 cancer cell line; experiment: In vitro cytotoxic activity (MTT assay), HepG-2; details: for IC50: Homo sapiens, HepG2, read-out: IC50 (mean ± SD) HepG-2
From the text: (§1) The supplemental file contained extra details.

hCA XII = target: T1, hCA XII (Homo sapiens, UniProt O43570); experiment: Carbonic anhydrase inhibition, stopped-flow CO2 hydration, hCA XII; assay type: biochemical; details: read-out: IC50 (mean ± SD) Carbonic anhydrase isoforms hCA XII
T1 construct: made in house
Protocol: (§2) There was further information in the supplemental file.
(§3) An applied photophysics stopped-flow instrument was used for assaying the CA-catalyzed CO2 hydration activity. […] The CO2 concentrations ranged from 1.7 to 17 mM for the determination of the kinetic parameters and inhibition constants. For each inhibitor, at least six traces of the initial 5–10% of the reaction were used for determining the initial rate. The uncatalyzed rates were determined in the same manner and subtracted from the total observed rates. Stock solutions of inhibitor (0.1 mM) were prepared in distilled-deionized water, and dilutions up to 0.01 nM were done thereafter with distilled-deionized water. Inhibitor and enzyme solutions were preincubated together for 15 min at room temperature before assay in order to allow for the formation of the E-I complex. The inhibition constants were obtained by nonlinear least-squares methods using PRISM 3, and the Cheng –Prusoff equation, and represent the mean from at least three different determinations. All CA isoforms were recombinant ones obtained in-house.

VEGFR-2 = VEGFR-2 (Homo sapiens, UniProt P35968); experiment: In vitro inhibitory assessment against VEGFR-2 (ELISA, MCF-7 cell homogenates); assay type: cell-based; details: read-out: IC50 (mean ± SD) VEGFR-2
Protocol: as §2
The cells were harvested and the homogenates were prepared in saline using a tight pestle homogenizer until complete cell disruption. The kit uses a double-antibody sandwich enzyme-linked immunosorbent assay (ELISA) to determine the level of human VEGFR-2 in samples. A monoclonal antibody for VEGFR-2 was pre-coated onto 96-well plates. The test samples are added to the wells and a biotinylated detection polyclonal antibody from goat specific for VEGFR-2 was added subsequently followed by washing with PBS buffer. Avidin-Biotin-Peroxidase complex was added and the unbound conjugates were washed away with PBS buffer. HRP substrate TMB was used to visualize HRP enzymatic reaction. TMB was catalyzed by HRP to produce a blue color product that changed into yellow after adding acidic stop solution. The density of yellow color is proportional to the human VEGFR-2 amount of the sample captured in the plate. The chroma of color and the concentration of the human VEGFR-2 of the samples were positively correlated and the optical density was determined at 450 nm. The level of human VEGFR-2 in samples was calculated (pg/ml) as duplicate determinations from the standard curve. Percent inhibition was calculated in comparison to control untreated cells.

[3] = tested on: retinal pigment epithelial normal RPE-1 cell line; experiment: Cytotoxic activity (MTT assay) against normal cell line RPE-1; assay type: cell-based; details: Homo sapiens, normal RPE-1 cells, read-out: IC50 (mean ± SD) RPE-1
From the text: Furthermore, the MTT assay was utilized to estimate the cytotoxic activity of the extremely potent derivatives 4, 7 and 9 against the normal cell line RPE-1, with the aim of examining their safety profiles (Table 1). […] They could therefore be thought of as safe cytotoxic agents.
as §1

[4] = tested on: breast MCF-7 cancer cell line; experiment: In vitro cytotoxic activity (MTT assay), MCF-7; assay type: cell-based, human; details: for inhibition at 100 µM / IC50: Homo sapiens, MCF7; for inhibition at 100 µM: 48 h, read-out: % inhibition ± SD MCF-7; for IC50: MCF-7 cells, MTT, read-out: IC50 (mean ± SD) MCF-7
From the text: as §1

hCA IX = target: T2, hCA IX (Homo sapiens, UniProt Q16790); experiment: Carbonic anhydrase inhibition, stopped-flow CO2 hydration, hCA IX; assay type: biochemical; details: read-out: IC50 (mean ± SD) Carbonic anhydrase isoforms hCA IX
T2 construct: made in house
Protocol: as §2, §3

[5] = tested on: colorectal HCT-116 cancer cell line; experiment: In vitro cytotoxic activity (MTT assay), HCT-116; assay type: cell-based, human; details: for inhibition at 100 µM / IC50: Homo sapiens; for inhibition at 100 µM: HCT-116, 48 h, read-out: % inhibition ± SD HCT-116; for IC50: HCT-116 cells, MTT, read-out: IC50 (mean ± SD) HCT-116
From the text: as §1

MCF-7 cells [6] = experiment: Apoptosis detection, Annexin V-FITC/PI flow cytometry; assay type: cell-based, human; details: 21.15 μM, 24 h
Protocol: (§4) The cells were further examined through flow cytometry with annexin-V staining (Figs. 5–7).
(§5) The examination of cell cycle analysis and apoptosis was explained[66] with the use of flow cytometry. Benzenesulfonamide-1,2,3-triazole-glycosides 9 was applied to MCF-7 cells for a duration of 24 h, and the cells were then incubated at 37 °C. Further details were included in the supplemental file.
(§6) Cell cycle analysis and apoptosis study were carried out using flow cytometry. MCF-7 cells were seeded at 8×10^4 and incubated at 37°C in 5% CO2 overnight. After treatment with the tested compound 10 for 24 h, cell pellets were collected and centrifuged (300 g, 5 min). For cell cycle analysis cell pellets were fixed with 70% ethanol on ice for 15 min and collected again. The pellets were incubated with propidium iodide (PI) staining solution at room temperature for 1 h and analyzed by a Gallios flow cytometer (Beckman Coulter, Brea, CA, USA). Apoptosis detection was carried out by FITC AnnexinV/PI commercial kit (Becton Dickenson, Franklin Lakes, NJ, USA) following the manufacturer protocol. The samples were analyzed by fluorescence-activated cell sorting (FACS) with a Gallios flow cytometer (Beckman Coulter, Brea, CA, USA) within 1 h after staining. Data were analyzed using Kaluza v 1.2 (Beckman Coulter).

Bcl-2 = Bcl-2 level in MCF-7 cells; assay type: cell-based, human; details: 24 h, 21.15 μM
From the text: (§7) Additionally, compound 9 boosted the p53 protein level by 7.4 times in MCF-7 treated cells compared to 125.40 Pg/mL in control cells (Table 3).
(§8) Bax, Bcl-2 and p53 levels in MCF-7 cells were clarified utilising the previously reported approach for the promising benzenesulfonamide-1,2,3-triazole-glycosides 9.
(§9) The levels of the apoptotic marker Bax and anti-apoptotic marker Bcl-2 were estimated using BIO RAD iScript TM One-Step RT-PCR kit with SYBR® Green. The procedure of the used kit was done according to the manufacturer’s instructions.

MCF-7 cells [7] = experiment: Cell cycle analysis by flow cytometry (PI); assay type: cell-based, human; details: 21.15 μM, 24 h, 48 h (Table S6 title)
Protocol: as §4, §5, §6

Bax = Bax level in MCF-7 cells; assay type: cell-based, human; details: 24 h, 21.15 μM
From the text: as §7, §8, §9

p53 = p53 level in MCF-7 cells (ELISA); assay type: cell-based, human; details: 24 h, 21.15 μM
Protocol: as §7, §8
Human p53 present in MCF-7 cells was determined; using Human p53 ELISA-Kit (CS0070 Sigma) read using spectrophotometer at 450 nm against untreated control cells (negative control) applying the standard protocols of the manufacturers. The samples or standard having human p53 bind to antibodies adsorbed to the microwells. Addition of biotin-conjugated was followed by incubation and addition of dispense of unbound biotin-conjugated streptavidin HRP. Then, the reaction was terminated by adding acid, and the absorbance was measured at 450 nm.

Chain of VEGFR-2 (P35968 20-1356): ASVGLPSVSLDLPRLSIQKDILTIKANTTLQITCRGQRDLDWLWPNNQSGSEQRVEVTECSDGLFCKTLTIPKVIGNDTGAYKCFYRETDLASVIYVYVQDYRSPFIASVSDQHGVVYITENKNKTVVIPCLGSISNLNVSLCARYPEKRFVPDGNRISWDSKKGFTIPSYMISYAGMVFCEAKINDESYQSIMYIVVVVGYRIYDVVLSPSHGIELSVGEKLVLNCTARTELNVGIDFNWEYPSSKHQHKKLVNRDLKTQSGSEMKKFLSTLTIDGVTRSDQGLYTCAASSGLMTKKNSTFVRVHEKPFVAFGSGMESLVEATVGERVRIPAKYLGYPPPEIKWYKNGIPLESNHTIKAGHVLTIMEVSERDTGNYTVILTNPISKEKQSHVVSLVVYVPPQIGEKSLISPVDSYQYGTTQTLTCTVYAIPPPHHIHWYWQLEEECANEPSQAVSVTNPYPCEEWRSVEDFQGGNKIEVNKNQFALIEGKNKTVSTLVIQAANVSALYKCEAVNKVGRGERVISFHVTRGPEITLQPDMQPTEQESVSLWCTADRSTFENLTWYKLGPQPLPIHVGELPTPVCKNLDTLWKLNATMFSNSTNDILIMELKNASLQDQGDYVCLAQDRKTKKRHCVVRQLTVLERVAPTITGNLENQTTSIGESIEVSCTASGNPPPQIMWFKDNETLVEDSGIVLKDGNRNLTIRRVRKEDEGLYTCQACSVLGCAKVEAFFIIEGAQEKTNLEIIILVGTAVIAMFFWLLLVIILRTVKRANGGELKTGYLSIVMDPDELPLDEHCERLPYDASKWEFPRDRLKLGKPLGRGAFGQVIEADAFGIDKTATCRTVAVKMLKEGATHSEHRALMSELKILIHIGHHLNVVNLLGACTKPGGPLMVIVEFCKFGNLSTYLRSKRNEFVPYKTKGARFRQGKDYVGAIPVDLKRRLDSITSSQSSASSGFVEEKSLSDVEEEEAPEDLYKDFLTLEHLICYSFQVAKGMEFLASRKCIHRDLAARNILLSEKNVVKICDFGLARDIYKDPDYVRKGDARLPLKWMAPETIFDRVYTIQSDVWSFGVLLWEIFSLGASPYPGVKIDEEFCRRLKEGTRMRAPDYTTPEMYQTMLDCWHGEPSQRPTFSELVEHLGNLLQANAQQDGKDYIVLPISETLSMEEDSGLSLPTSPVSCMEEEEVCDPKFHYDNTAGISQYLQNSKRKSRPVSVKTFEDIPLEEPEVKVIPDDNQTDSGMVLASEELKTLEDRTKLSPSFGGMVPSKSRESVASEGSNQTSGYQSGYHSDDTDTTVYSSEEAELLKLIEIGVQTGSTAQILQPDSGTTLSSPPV
T1 sequence (O43570 25-354): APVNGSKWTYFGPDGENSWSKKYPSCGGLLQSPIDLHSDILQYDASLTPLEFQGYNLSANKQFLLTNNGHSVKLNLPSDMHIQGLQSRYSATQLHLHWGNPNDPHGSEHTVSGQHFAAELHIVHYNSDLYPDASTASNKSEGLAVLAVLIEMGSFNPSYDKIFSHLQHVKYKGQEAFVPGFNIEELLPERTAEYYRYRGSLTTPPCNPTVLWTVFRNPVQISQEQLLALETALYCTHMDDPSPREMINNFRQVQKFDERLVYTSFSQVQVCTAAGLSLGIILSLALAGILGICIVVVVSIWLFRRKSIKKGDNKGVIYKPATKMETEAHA

IC50 (hCA XII): 0.0076 µM
IC50 (VEGFR-2): 1.33 ± 0.1 µM
IC50 (hCA IX): 0.066 µM
SMILES: CC(=O)OC[C@H]1O[C@@H](OCc2cn(-c3ccc(S(=O)(=O)NC4CCCCC4)cc3)nn2)[C@H](OC(C)=O)[C@@H](OC(C)=O)[C@H]1OC(C)=O [Compound 7, N-cyclohexyl-4-(4-([2,3,4,6-tetra-O-acetyl-β-D-galactopyranosyl]oxymethyl)-1H-1,2,3-triazol-1-yl)benzenesulfonamide]
percentage cytotoxicity on A-549 ([1]; 12.5 µM): 12.60±0.82%
percentage cytotoxicity on A-549 ([1]; 25 µM): 29.31±0.02%
percentage cytotoxicity on A-549 ([1]; 50 µM): 60.23±1.47%
percentage cytotoxicity on A-549 ([1]; 100 µM): 94.10±0.51%
inhibition at 100 µM [1]: 94.1 ± 0.51%
IC50 [1]: 20.4 ± 0.28 µM
percentage cytotoxicity on HepG-2 ([2]; 12.5 µM): 84.09±0.85%
percentage cytotoxicity on HepG-2 ([2]; 25 µM): 85.07±0.05%
percentage cytotoxicity on HepG-2 ([2]; 50 µM): 85.58±0.88%
percentage cytotoxicity on HepG-2 ([2]; 100 µM): 87.60±1.73%
IC50 [2]: 10.5 ± 0.13 µM
IC50 [3]: 82.58 ± 0.52 µM
percentage cytotoxicity on MCF-7 ([4]; 12.5 µM): 30.37±3.66%
percentage cytotoxicity on MCF-7 ([4]; 25 µM): 55.90±1.44%
percentage cytotoxicity on MCF-7 ([4]; 50 µM): 88.77±2.70%
percentage cytotoxicity on MCF-7 ([4]; 100 µM): 98.89±0.19%
inhibition at 100 µM ([4]; 100 µM): 98.89 ± 0.19%
IC50 [4]: 20.3 ± 0.66 µM
percentage cytotoxicity on HCT-116 ([5]; 12.5 µM): 32.50±1.25%
percentage cytotoxicity on HCT-116 ([5]; 25 µM): 48.80±0.95%
percentage cytotoxicity on HCT-116 ([5]; 50 µM): 50.70±0.70%
percentage cytotoxicity on HCT-116 ([5]; 100 µM): 75.70±0.96%
inhibition at 100 µM ([5]; 100 µM): 75.7 ± 0.96%
IC50 [5]: 32 ± 0.42 µM

IC50 (hCA XII): 0.0032 µM
IC50 (VEGFR-2): 0.38 ± 0.14 µM
IC50 (hCA IX): 0.04 µM
SMILES: CC(=O)O[C@@H]1[C@@H](OC(C)=O)[C@H](OCc2cn(-c3ccc(S(=O)(=O)NC4CCCCC4)cc3)nn2)OC[C@H]1OC(C)=O [Compound 9, N-cyclohexyl-4-(4-([2,3,4-tri-O-acetyl-β-D-xylopyranosyl]oxymethyl)-1H-1,2,3-triazol-1-yl)benzenesulfonamide]
Apoptosis Early (MCF-7 cells [6]): 15.77%
Apoptosis Late (MCF-7 cells [6]): 9.75%
Apoptosis Total (MCF-7 cells [6]): 29.51
Necrosis (MCF-7 cells [6]): 3.99%
percentage cytotoxicity on A-549 ([1]; 12.5 µM): 43.13±0.73%
percentage cytotoxicity on A-549 ([1]; 25 µM): 47.60±0.32%
percentage cytotoxicity on A-549 ([1]; 50 µM): 75.53±1.16%
percentage cytotoxicity on A-549 ([1]; 100 µM): 90.00±0.95%
inhibition at 100 µM [1]: 90 ± 0.95%
IC50 [1]: 19.8 ± 0.65 µM
Bcl-2 (Bcl-2): 3.27 ng/mL and 3.27 ± 0.18 ng/mL
Bcl-2 protein downregulated versus control (Bcl-2): 2.6 times
percentage cytotoxicity on HepG-2 ([2]; 12.5 µM): 58.20±1.50%
percentage cytotoxicity on HepG-2 ([2]; 25 µM): 63.70±2.29%
percentage cytotoxicity on HepG-2 ([2]; 50 µM): 82.59±0.87%
percentage cytotoxicity on HepG-2 ([2]; 100 µM): 82.60±1.73%
IC50 [2]: 8.39 ± 0.2 µM
%G0-G1 (MCF-7 cells [7]): 52.69%
%G2/M (MCF-7 cells [7]): 29.98%
%S (MCF-7 cells [7]): 17.33%
Bax (Bax): 271.45 pg/mL and 271.45 ± 0.25 pg/mL
Bax/Bcl-2 (Bax): 83.01
increase in Bax levels compared to untreated control cells (Bax): 6.2 fold
IC50 [3]: 87.22 ± 0.73 µM
percentage cytotoxicity on MCF-7 ([4]; 12.5 µM): 32.60±6.13%
percentage cytotoxicity on MCF-7 ([4]; 25 µM): 52.27±0.43%
percentage cytotoxicity on MCF-7 ([4]; 50 µM): 83.30±1.87%
percentage cytotoxicity on MCF-7 ([4]; 100 µM): 92.73±1.04%
inhibition at 100 µM ([4]; 100 µM): 92.7 ± 1.04%
IC50 [4]: 21.2 ± 2.45 µM
percentage cytotoxicity on HCT-116 ([5]; 12.5 µM): 34.51±0.44%
percentage cytotoxicity on HCT-116 ([5]; 25 µM): 53.50±0.93%
percentage cytotoxicity on HCT-116 ([5]; 50 µM): 67.00±0.12%
percentage cytotoxicity on HCT-116 ([5]; 100 µM): 75.70±0.48%
inhibition at 100 µM ([5]; 100 µM): 75.7 ± 0.48%
IC50 [5]: 23.6 ± 0.22 µM
P53 (p53): 930.69 ± 0.55 pg/mL
p53 protein level boosted versus control (p53): 7.4 times
